The assay concerns HCT116 colorectal cancer cells. In words: Cisplatin sensitization assay (96 h cell viability MTS).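 Further: Test-compound concentration that lowers the Cisplatin IC50 by a set fold.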 The class given is cell-based. The following applies: compound and Cisplatin added simultaneously, Cisplatin sensitization value. An outline of the steps:
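Viability read by MTS (1 h at 37° C) after 96 h co-exposure at 37° C, 5% CO2. Test compound and cisplatin were dosed simultaneously in a full concentration matrix, each 2-fold serially diluted from 10 μM final; sensitization values binned in μM.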
Turning to `Nc1nn2cc(F)cnc2c1C(=O)Nc1cncc(F)c1N1CCN(C2CCOC2)CC1` (stereo not shown) [I-N-122, 2-amino-6-fluoro-N-(5-fluoro-4-(4-(tetrahydrofuran-3-yl)piperazin-1-yl)pyridin-3-yl)pyrazolo[1,5-a]pyrimidine-3-carboxamide], the “Cisplatin Sensitization Assay” value is “++ (Cisplatin sensitization value>0.02 μM but <0.2 μM)”.
The value for `Nc1nn2cc(Cl)cnc2c1C(=O)Nc1cnccc1O[C@H]1CCNC1` [I-O-76, (S)-2-amino-6-chloro-N-(4-(pyrrolidin-3-yloxy)pyridin-3-yl)pyrazolo[1,5-a]pyrimidine-3-carboxamide] was “++ (Cisplatin sensitization value>0.02 μM but <0.2 μM)”; that for `Nc1nn2cc(Cl)cnc2c1C(=O)Nc1cnccc1N1CCC(N2CCn3ccnc3C2)CC1` [I-N-102, 2-amino-6-chloro-N-(4-(4-(5,6-dihydroimidazo[1,2-a]pyrazin-7(8H)-yl)piperidin-1-yl)pyridin-3-yl)pyrazolo[1,5-a]pyrimidine-3-carboxamide] was “++ (Cisplatin sensitization value>0.02 μM but <0.2 μM)”.
Then `Nc1nn2cc(F)cnc2c1C(=O)Nc1cncc(F)c1N1CCN(C(=O)C2CN3CCC2CC3)CC1` (stereo not shown) [I-N-130, 2-amino-6-fluoro-N-(5-fluoro-4-(4-(quinuclidine-3-carbonyl)piperazin-1-yl)pyridin-3-yl)pyrazolo[1,5-a]pyrimidine-3-carboxamide], with “++ (Cisplatin sensitization value>0.02 μM but <0.2 μM)”; and `Nc1nn2cc(F)cnc2c1C(=O)Nc1cnccc1N1CCC(CN2CCC(F)(F)C2)CC1` [I-N-197, 2-amino-N-(4-(4-((3,3-difluoropyrrolidin-1-yl)methyl)piperidin-1-yl)pyridin-3-yl)-6-fluoropyrazolo[1,5-a]pyrimidine-3-carboxamide], with “+++ (Cisplatin sensitization value of <0.02 μM)”; and `Nc1nn2cc(F)cnc2c1C(=O)Nc1cnccc1N1CCN(S(=O)(=O)C2COC2)CC1` [I-N-195, 2-amino-6-fluoro-N-(4-(4-(oxetan-3-ylsulfonyl)piperazin-1-yl)pyridin-3-yl)pyrazolo[1,5-a]pyrimidine-3-carboxamide], with “+++ (Cisplatin sensitization value of <0.02 μM)”.
Then `Cc1cncc(NC(=O)c2c(N)nn3cc(Cl)cnc23)c1N1CCN(C)CC1` [I-N-57, 2-amino-6-chloro-N-(5-methyl-4-(4-methylpiperazin-1-yl)pyridin-3-yl)pyrazolo[1,5-a]pyrimidine-3-carboxamide], with “+++ (Cisplatin sensitization value of <0.02 μM)”.
Consider `N#CCc1cnc2c(C(=O)Nc3cnccc3N3CCC(N)CC3)c(N)nn2c1` [I-N-2, 2-amino-N-(4-(4-aminopiperidin-1-yl)pyridin-3-yl)-6-(cyanomethyl)pyrazolo[1,5-a]pyrimidine-3-carboxamide], for which the “Cisplatin Sensitization Assay” value was “+++ (Cisplatin sensitization value of <0.02 μM)”.
In the case of `Nc1nn2cc(F)cnc2c1C(=O)Nc1cnccc1Oc1cccnc1` [I-O-7, 2-amino-6-fluoro-N-(4-(pyridin-3-yloxy)pyridin-3-yl)pyrazolo[1,5-a]pyrimidine-3-carboxamide], the “Cisplatin Sensitization Assay” value was “++ (Cisplatin sensitization value>0.02 μM but <0.2 μM)”.
As for `CCC(C#N)c1cnc2c(C(=O)Nc3cnccc3OC)c(N)nn2c1` (stereo not shown) [I-O-20, 2-amino-6-(1-cyanopropyl)-N-(4-methoxypyridin-3-yl)pyrazolo[1,5-a]pyrimidine-3-carboxamide], the “Cisplatin Sensitization Assay” value is “++ (Cisplatin sensitization value>0.02 μM but <0.2 μM)”.
As for `N#CCc1cnc2c(C(=O)Nc3cnccc3OCC3CC3)c(N)nn2c1` [I-O-32, 2-amino-6-(cyanomethyl)-N-(4-(cyclopropylmethoxy)pyridin-3-yl)pyrazolo[1,5-a]pyrimidine-3-carboxamide], the “Cisplatin Sensitization Assay” value was “+++ (Cisplatin sensitization value of <0.02 μM)”.
As to `CN(C)C(=O)[C@H]1CC[C@@H](Oc2ccncc2NC(=O)c2c(N)nn3cc(F)cnc23)CC1` [I-O-17, 2-amino-N-(4-(((1s,4s)-4-(dimethylcarbamoyl)cyclohexyl)oxy)pyridin-3-yl)-6-fluoropyrazolo[1,5-a]pyrimidine-3-carboxamide], the “Cisplatin Sensitization Assay” value is on record as “+++ (Cisplatin sensitization value of <0.02 μM)”.
The value for `COC(=O)C1CCN(c2ccncc2NC(=O)c2c(N)nn3cc(Cl)cnc23)CC1` [I-N-74, methyl-1-(3-(2-amino-6-chloropyrazolo[1,5-a]pyrimidine-3-carboxamido)pyridin-4-yl)piperidine-4-carboxylate] was “+++ (Cisplatin sensitization value of <0.02 μM)”; that for `Nc1nn2cc(F)cnc2c1C(=O)Nc1cnccc1N1CCC(S(=O)(=O)N2CCOCC2)CC1` [I-N-170, 2-amino-6-fluoro-N-(4-(4-(morpholinosulfonyl)piperidin-1-yl)pyridin-3-yl)pyrazolo[1,5-a]pyrimidine-3-carboxamide] was “+++ (Cisplatin sensitization value of <0.02 μM)”.
The value for `COCCOc1ccncc1NC(=O)c1c(N)nn2cc(CC#N)cnc12` [I-O-29, 2-amino-6-(cyanomethyl)-N-(4-(2-methoxyethoxy)pyridin-3-yl)pyrazolo[1,5-a]pyrimidine-3-carboxamide] was “+++ (Cisplatin sensitization value of <0.02 μM)”.
The value for `Cn1cncc1-c1c(F)cncc1NC(=O)c1c(N)nn2cc(F)cnc12` [I-C-79, 2-amino-6-fluoro-N-(5-fluoro-4-(1-methyl-1H-imidazol-5-yl)pyridin-3-yl)pyrazolo[1,5-a]pyrimidine-3-carboxamide] was “+++ (Cisplatin sensitization value of <0.02 μM)”; that for `Nc1nn2cc(Cl)cnc2c1C(=O)Nc1cnccc1N1CCC(N2CC[S+]([O-])CC2)CC1` [I-N-100, 2-amino-6-chloro-N-(4-(4-(1-oxidothiomorpholino)piperidin-1-yl)pyridin-3-yl)pyrazolo[1,5-a]pyrimidine-3-carboxamide] was “++ (Cisplatin sensitization value>0.02 μM but <0.2 μM)”.
As to `Nc1nn2cc(F)cnc2c1C(=O)Nc1cnccc1N1CCN([C@H]2CCOC2)CC1` [I-N-12, (S)-2-amino-6-fluoro-N-(4-(4-(tetrahydrofuran-3-yl)piperazin-1-yl)pyridin-3-yl)pyrazolo[1,5-a]pyrimidine-3-carboxamide], the “Cisplatin Sensitization Assay” value was “+++ (Cisplatin sensitization value of <0.02 μM)”.
Then `Nc1nn2cc(Cl)cnc2c1C(=O)Nc1cnccc1N1CCN2CCC[C@@H]2C1` [I-N-65, (R)-2-amino-6-chloro-N-(4-(hexahydropyrrolo[1,2-a]pyrazin-2(1H)-yl)pyridin-3-yl)pyrazolo[1,5-a]pyrimidine-3-carboxamide], with “+ (Cisplatin sensitization value>0.2 μM but <5 μM)”; and `Cn1c(-c2ccncc2NC(=O)c2c(N)nn3cc(F)cnc23)cccc1=O` [I-C-58, 2-amino-6-fluoro-N-(1-methyl-6-oxo-1,6-dihydro-[2,4′-bipyridin]-3′-yl)pyrazolo[1,5-a]pyrimidine-3-carboxamide], with “+++ (Cisplatin sensitization value of <0.02 μM)”; and `Cc1ncn(C)c1-c1ccncc1NC(=O)c1c(N)nn2cc(F)cnc12` [I-C-78, 2-amino-N-(4-(1,4-dimethyl-1H-imidazol-5-yl)pyridin-3-yl)-6-fluoropyrazolo[1,5-a]pyrimidine-3-carboxamide], with “++ (Cisplatin sensitization value>0.02 μM but <0.2 μM)”.
Then `Nc1nn2cc(F)cnc2c1C(=O)Nc1cncc(F)c1N1CCN(C(=O)C2CC3CCCCN3C2)CC1` (stereo not shown) [I-N-203, 2-amino-6-fluoro-N-(5-fluoro-4-(4-(octahydroindolizine-2-carbonyl)piperazin-1-yl)pyridin-3-yl)pyrazolo[1,5-a]pyrimidine-3-carboxamide], with “+++ (Cisplatin sensitization value of <0.02 μM)”; and `Nc1nn2cc(F)cnc2c1C(=O)Nc1cncc(F)c1N1CCC(C(=O)N2CC(N3CCC3)C2)CC1` [I-G-49, N-(4-(4-([1,3′-biazetidine]-1′-carbonyl)piperidin-1-yl)-5-fluoropyridin-3-yl)-2-amino-6-fluoropyrazolo[1,5-a]pyrimidine-3-carboxamide], with “+++ (Cisplatin sensitization value of <0.02 μM)”.
Then `CN1CC[C@@H](OC2CCN(c3c(F)cncc3NC(=O)c3c(N)nn4cc(F)cnc34)CC2)C1` [I-N-132, (R)-2-amino-6-fluoro-N-(5-fluoro-4-(4-((1-methylpyrrolidin-3-yl)oxy)piperidin-1-yl)pyridin-3-yl)pyrazolo[1,5-a]pyrimidine-3-carboxamide], with “+++ (Cisplatin sensitization value of <0.02 μM)”; and `N#CCc1cnc2c(C(=O)Nc3cnccc3N3CCCCCC3)c(N)nn2c1` [I-N-79, 2-amino-N-(4-(azepan-1-yl)pyridin-3-yl)-6-(cyanomethyl)pyrazolo[1,5-a]pyrimidine-3-carboxamide], with “++ (Cisplatin sensitization value>0.02 μM but <0.2 μM)”; and `Nc1nn2cc(F)cnc2c1C(=O)Nc1cncc(F)c1N1CCN2C(=O)CCC[C@H]2C1` [I-N-279, (S)-2-amino-6-fluoro-N-(5-fluoro-4-(6-oxohexahydro-1H-pyrido[1,2-a]pyrazin-2(6H)-yl)pyridin-3-yl)pyrazolo[1,5-a]pyrimidine-3-carboxamide], with “+++ (Cisplatin sensitization value of <0.02 μM)”.
As to `Nc1nn2cc(F)cnc2c1C(=O)Nc1cnccc1-c1ccncc1` [I-C-24, N-([4,4′-bipyridin]-3-yl)-2-amino-6-fluoropyrazolo[1,5-a]pyrimidine-3-carboxamide], the “Cisplatin Sensitization Assay” value was “+++ (Cisplatin sensitization value of <0.02 μM)”.
Regarding `Nc1nn2cc(F)cnc2c1C(=O)Nc1cnccc1-c1cccnc1` [I-C-15, N-([3,4′-bipyridin]-3′-yl)-2-amino-6-fluoropyrazolo[1,5-a]pyrimidine-3-carboxamide], the “Cisplatin Sensitization Assay” value is “++ (Cisplatin sensitization value>0.02 μM but <0.2 μM)”.

(Values after US11370798B2 (Vertex Pharmaceuticals Incorporated, priority 2012, dated 2022).)
